According to patent publication US20240358692A1, “TREATMENT OF SCLERODERMA” (Aisa Pharma, Inc., priority 2023, published 2024):

Test system: participants with SSc-RP
Assay: SHAQ - Visual Analog Scale - Pain
Assay type: in vivo, human
Settings: for SHAQ VAS Pain, Change from Baseline, Max / SHAQ VAS Pain, Change from Baseline, Mean / SHAQ VAS Pain, Change from Baseline, Median / SHAQ VAS Pain, Change from Baseline, Min / SHAQ VAS Pain, Change from Baseline, Q1 / SHAQ VAS Pain, Change from Baseline, Q3 / SHAQ VAS Pain, Day 12, Max / SHAQ VAS Pain, Day 12, Mean / SHAQ VAS Pain, Day 12, Median / SHAQ VAS Pain, Day 12, Min / SHAQ VAS Pain, Day 12, Q1 / SHAQ VAS Pain, Day 12, Q3 / SHAQ VAS Pain, Percent Change from Baseline, Max / SHAQ VAS Pain, Percent Change from Baseline, Mean / SHAQ VAS Pain, Percent Change from Baseline, Median / SHAQ VAS Pain, Percent Change from Baseline, Min / SHAQ VAS Pain, Percent Change from Baseline, Q1 / SHAQ VAS Pain, Percent Change from Baseline, Q3: SSc patients, PP; for % change in Pain: SHAQ, mITT Part A
Excerpt: The standard, validated, patient reported outcome measures tool for SSc patients, the Scleroderma Health Assessment Questionnaire (SHAQ), will be used to assess the participant qualify of life. Details are attached in the Appendix. The participant quality of life will be scored, and a disability index calculated for each questionnaire completed by the patient at Screening and each in-clinic visit. The absolute change in participant quality of life from baseline to the end of each dosing period will be calculated similar to frequency data as before.
The standard, validated, patient reported outcome measures tool for SSc patients, the SHAQ, was collected at the time points specified in the study schedules (FIG. 2 and FIGS. 4A and 4B) to assess the participant's quality of life. The SHAQ included a Raynaud's VAS that will also be reported separately.
Pain on the SHAQ outcome measure on the first line in table F is a composite of all pain experienced in patients with SSc, comprising joint pain, back pain, headache, odynophagia, skin ulcer related discomfort, Raynaud's, and neuropathic pain. Aisa Pharma believes, based on the biologic attributes and actions of cilnidipine that differ from most dihydropyridine calcium channel antagonists that cilnidipine might have direct analgesic effects in certain pain conditions and in fact has been designated to receive evaluation through the […] Preclinical Pain Screening Platform Program to investigate the drug in multiple in vitro and in vivo preclinical models of pain that are validated and predictive of effects in man.

[1] = Any Cilnidipine (N = 17), Day 12, PP Population, Part A
[2] = Modified ITT Population-Part A, Day 12, dose cilnidipine 10 mg, tadalafil 5 mg, alone or combined as labelled
[3] = Modified ITT Population-Part A, Day 12, dose cilnidipine 20 mg, tadalafil 5 mg, alone or combined as labelled
[4] = Pooled Cilnidipine (N = 8), Day 12, PP Population, Part A
[5] = pooled Cilnidipine 10 mg and Cilnidipine 10 mg + Tadalafil 5 mg
[6] = pooled Cilnidipine 20 mg and Cilnidipine 20 mg + Tadalafil 5 mg
[7] = pooled cilnidipine 10 mg and 20 mg arms (combination: + tadalafil 5 mg)

SMILES: COCCOC(=O)C1=C(C)NC(C)=C(C(=O)OC/C=C/c2ccccc2)C1c1cccc([N+](=O)[O-])c1 (stereo not drawn) [Cilnidipine]
- SHAQ Visual Analogue Scale - Pain, Change from Baseline, Mean (SD) [1]: −0.575 (1.0318)
- SHAQ Visual Analogue Scale - Pain, Change from Baseline, Median [1]: −0.600
- SHAQ Visual Analogue Scale - Pain, In-Clinic Visit (Day 12), Mean (SD) [1]: 2.476 (1.7312)
- SHAQ Visual Analogue Scale - Pain, In-Clinic Visit (Day 12), Median [1]: 2.200
- SHAQ Visual Analogue Scale - Pain, Percent Change from Baseline, Mean (SD) [1]: −22.77 (31.937) %
- SHAQ Visual Analogue Scale - Pain, Percent Change from Baseline, Median [1]: −22.58%
- SHAQ VAS Pain, Change from Baseline, Max (Cilnidipine 10 mg, Part A): 0.30
- SHAQ VAS Pain, Change from Baseline, Mean (Cilnidipine 10 mg, Part A): −0.100
- SHAQ VAS Pain, Change from Baseline, Median (Cilnidipine 10 mg, Part A): 0.000
- SHAQ VAS Pain, Change from Baseline, Min (Cilnidipine 10 mg, Part A): −0.70,
- SHAQ VAS Pain, Change from Baseline, Q1 (Cilnidipine 10 mg, Part A): −0.350,
- SHAQ VAS Pain, Change from Baseline, Q3 (Cilnidipine 10 mg, Part A): 0.150
- SHAQ VAS Pain, Day 12, Max (Cilnidipine 10 mg, Part A): 3.60
- SHAQ VAS Pain, Day 12, Mean (Cilnidipine 10 mg, Part A): 1.875
- SHAQ VAS Pain, Day 12, Median (Cilnidipine 10 mg, Part A): 1.950
- SHAQ VAS Pain, Day 12, Min (Cilnidipine 10 mg, Part A): 0.00,
- SHAQ VAS Pain, Day 12, Q1 (Cilnidipine 10 mg, Part A): 0.500,
- SHAQ VAS Pain, Day 12, Q3 (Cilnidipine 10 mg, Part A): 3.250
- SHAQ VAS Pain, Percent Change from Baseline, Max (Cilnidipine 10 mg, Part A): 11.5
- SHAQ VAS Pain, Percent Change from Baseline, Mean (Cilnidipine 10 mg, Part A): −9.88
- SHAQ VAS Pain, Percent Change from Baseline, Median (Cilnidipine 10 mg, Part A): 0.00
- SHAQ VAS Pain, Percent Change from Baseline, Min (Cilnidipine 10 mg, Part A): −41.2,
- SHAQ VAS Pain, Percent Change from Baseline, Q1 (Cilnidipine 10 mg, Part A): −41.18,
- SHAQ VAS Pain, Percent Change from Baseline, Q3 (Cilnidipine 10 mg, Part A): 11.54
- % change in Pain (Cilnidipine 20 mg (n = 3)): −53%
- SHAQ VAS Pain, Change from Baseline, Max (Cilnidipine 20 mg, Part A): 0.70
- SHAQ VAS Pain, Change from Baseline, Mean (Cilnidipine 20 mg, Part A): −0.650
- SHAQ VAS Pain, Change from Baseline, Min (Cilnidipine 20 mg, Part A): −2.00,
- SHAQ VAS Pain, Change from Baseline, Q1 (Cilnidipine 20 mg, Part A): −1.400,
- SHAQ VAS Pain, Change from Baseline, Q3 (Cilnidipine 20 mg, Part A): 0.100
- SHAQ VAS Pain, Day 12, Max (Cilnidipine 20 mg, Part A): 4.30
- SHAQ VAS Pain, Day 12, Mean (Cilnidipine 20 mg, Part A): 1.875
- SHAQ VAS Pain, Day 12, Median (Cilnidipine 20 mg, Part A): 1.400
- SHAQ VAS Pain, Day 12, Min (Cilnidipine 20 mg, Part A): 0.40,
- SHAQ VAS Pain, Day 12, Q1 (Cilnidipine 20 mg, Part A): 0.550,
- SHAQ VAS Pain, Day 12, Q3 (Cilnidipine 20 mg, Part A): 3.200
- SHAQ VAS Pain, Percent Change from Baseline, Mean (Cilnidipine 20 mg, Part A): −34.56
- SHAQ VAS Pain, Percent Change from Baseline, Min (Cilnidipine 20 mg, Part A): −55.6,
- SHAQ VAS Pain, Percent Change from Baseline, Q1 (Cilnidipine 20 mg, Part A): −54.44,
- SHAQ VAS Pain, Percent Change from Baseline, Q3 (Cilnidipine 20 mg, Part A): −14.67
- Visual Analog Scale-Pain, Change from Baseline, Mean [2]: −0.100
- Visual Analog Scale-Pain, Change from Baseline, Median [2]: 0.000
- Visual Analog Scale-Pain, Percent Change from Baseline, Median [2]: 0.00%
- Visual Analog Scale-Pain, Change from Baseline, Mean [3]: −1.100
- Visual Analog Scale-Pain, Change from Baseline, Median [3]: −0.800
- Visual Analog Scale-Pain, In Clinic Visit (Day 12), Median (Modified ITT Population-Part A, dose cilnidipine 20 mg, tadalafil 5 mg, alone or combined as labelled): 0.700
- SHAQ Visual Analogue Scale - Pain, In-Clinic Visit (Day 12), Median (Pooled Cilnidipine 10 mg and Cilnidipine 10 mg + Tadalafil 5 mg (N = 9), Day 12, PP Population, Part A): 2.900
- SHAQ Visual Analogue Scale - Pain, In-Clinic Visit (Day 12), Median (Pooled Cilnidipine 20 mg and Cilnidipine 20 mg + Tadalafil 5 mg (N = 8), Day 12, PP Population, Part A): 2.100
- SHAQ Visual Analogue Scale - Pain, Change from Baseline, Mean (SD) [4]: −0.375 (0.8311)
- SHAQ Visual Analogue Scale - Pain, In-Clinic Visit (Day 12), Mean (SD) [4]: 1.875 (1.5944)
- SHAQ Visual Analogue Scale - Pain, Percent Change from Baseline, Mean (SD) [4]: −23.98 (32.893) %
- % change in Pain (Pooled Cilnidipine (n = 7)): −31%
- % Δ from baseline, VAS Pain median (Pooled cilnidipine (n=6)): −45%
- SHAQ VAS-Pain (change) (cilnidipine 20 mg): −1.1
- VAS Pain Change from Baseline Max [5]: 0.60
- VAS Pain Change from Baseline Mean [5]: −0.633
- VAS Pain Change from Baseline Median [5]: −0.700
- VAS Pain Change from Baseline Min [5]: −2.80,
- VAS Pain Change from Baseline Q1 [5]: −1.100,
- VAS Pain Change from Baseline Q3 [5]: 0.000
- VAS Pain Day 12 Max [5]: 5.50
- VAS Pain Day 12 Median [5]: 2.900
- VAS Pain Day 12 Min [5]: 0.00,
- VAS Pain Day 12 Q1 [5]: 1.000,
- VAS Pain Day 12 Q3 [5]: 3.800
- VAS Pain Percent Change from Baseline Max [5]: 18.8%
- VAS Pain Percent Change from Baseline Mean [5]: −20.07%
- VAS Pain Percent Change from Baseline Median [5]: −21.87%
- VAS Pain Percent Change from Baseline Min [5]: −72.2, %
- VAS Pain Percent Change from Baseline Q1 [5]: −37.46, %
- VAS Pain Percent Change from Baseline Q3 [5]: 5.77%
- VAS Pain Change from Baseline Max [6]: 0.90
- VAS Pain Change from Baseline Mean [6]: −0.700
- VAS Pain Change from Baseline Median [6]: −0.650
- VAS Pain Change from Baseline Min [6]: −2.00,
- VAS Pain Change from Baseline Q1 [6]: −1.700,
- VAS Pain Change from Baseline Q3 [6]: −0.100
- VAS Pain Day 12 Max [6]: 5.30
- VAS Pain Day 12 Mean [6]: 2.000
- VAS Pain Day 12 Median [6]: 2.100
- VAS Pain Day 12 Min [6]: 0.40,
- VAS Pain Day 12 Q1 [6]: 0.700,
- VAS Pain Day 12 Q3 [6]: 2.200
- VAS Pain Percent Change from Baseline Max [6]: 20.5%
- VAS Pain Percent Change from Baseline Median [6]: −51.06%
- VAS Pain Percent Change from Baseline Min [6]: −58.6, %
- VAS Pain Percent Change from Baseline Q1 [6]: −55.56, %
- VAS Pain Percent Change from Baseline Q3 [6]: −4.55%
- VAS Pain Change from Baseline Max [7]: 0.30
- VAS Pain Change from Baseline Median [7]: −0.500
- VAS Pain Change from Baseline Min [7]: −2.00,
- VAS Pain Change from Baseline Q1 [7]: −0.800,
- VAS Pain Change from Baseline Q3 [7]: 0.000
- VAS Pain Day 12 Max [7]: 3.60
- VAS Pain Day 12 Median [7]: 1.000
- VAS Pain Day 12 Min [7]: 0.00,
- VAS Pain Day 12 Q1 [7]: 0.400,
- VAS Pain Day 12 Q3 [7]: 2.900
- VAS Pain Percent Change from Baseline Max [7]: 11.5%
- VAS Pain Percent Change from Baseline Min [7]: −55.6, %
- VAS Pain Percent Change from Baseline Q1 [7]: −53.33, %
- VAS Pain Percent Change from Baseline Q3 [7]: 0.00%

SMILES: CN1CC(=O)N2[C@H](c3ccc4c(c3)OCO4)c3[nH]c4ccccc4c3C[C@@H]2C1=O [Tadalafil]
- Visual Analog Scale-Pain, Change from Baseline, Mean [2]: 1.000
- Visual Analog Scale-Pain, Change from Baseline, Median [2]: 0.800
- Visual Analog Scale-Pain, In Clinic Visit (Day 12), Mean (Modified ITT Population-Part A, dose cilnidipine 10 mg, tadalafil 5 mg, alone or combined as labelled): 5.300
- SHAQ VAS Pain, Change from Baseline, Max (Tadalafil 5 mg, Part A): 1.50
- SHAQ VAS Pain, Change from Baseline, Mean (Tadalafil 5 mg, Part A): 1.000
- SHAQ VAS Pain, Change from Baseline, Median (Tadalafil 5 mg, Part A): 0.800
- SHAQ VAS Pain, Change from Baseline, Min (Tadalafil 5 mg, Part A): 0.70,
- SHAQ VAS Pain, Change from Baseline, Q1 (Tadalafil 5 mg, Part A): 0.700,
- SHAQ VAS Pain, Change from Baseline, Q3 (Tadalafil 5 mg, Part A): 1.500
- SHAQ VAS Pain, Day 12, Max (Tadalafil 5 mg, Part A): 9.20
- SHAQ VAS Pain, Day 12, Mean (Tadalafil 5 mg, Part A): 5.300
- SHAQ VAS Pain, Day 12, Median (Tadalafil 5 mg, Part A): 5.850
- SHAQ VAS Pain, Day 12, Min (Tadalafil 5 mg, Part A): 0.30,
- SHAQ VAS Pain, Day 12, Q1 (Tadalafil 5 mg, Part A): 1.900,
- SHAQ VAS Pain, Day 12, Q3 (Tadalafil 5 mg, Part A): 8.700
- SHAQ VAS Pain, Percent Change from Baseline, Max (Tadalafil 5 mg, Part A): 75.0
- SHAQ VAS Pain, Percent Change from Baseline, Mean (Tadalafil 5 mg, Part A): 31.35
- SHAQ VAS Pain, Percent Change from Baseline, Median (Tadalafil 5 mg, Part A): 10.81
- SHAQ VAS Pain, Percent Change from Baseline, Min (Tadalafil 5 mg, Part A): 8.2,
- SHAQ VAS Pain, Percent Change from Baseline, Q1 (Tadalafil 5 mg, Part A): 8.24,
- SHAQ VAS Pain, Percent Change from Baseline, Q3 (Tadalafil 5 mg, Part A): 75.00
